Reference: patent US7259266B2, “Benzopyran compounds useful for treating inflammatory conditions” (Pharmacia Corporation, priority 2003, dated 2007)
Values joined by “and” are separate entries in the source; they are usually repeats but may differ in a detail not shown here. Equal values may be shown once.

How the values were obtained:
COX-2 [1] = target: T1, COX-2 (Homo sapiens, UniProt P35354); test: Assay for COX-2 activity (PGE2 formed, ELISA); type: biochemical, human or murine; settings: human COX-2, standard assay, read-out: hCox-2 IC50
T1 construct: A 2.0 kb fragment containing the coding region of either human or murine COX-1 or human or murine COX-2; made in house; host or cells: SF9 insect cells (baculovirus, pVL1393)
T1 sequence (P35354 18-604): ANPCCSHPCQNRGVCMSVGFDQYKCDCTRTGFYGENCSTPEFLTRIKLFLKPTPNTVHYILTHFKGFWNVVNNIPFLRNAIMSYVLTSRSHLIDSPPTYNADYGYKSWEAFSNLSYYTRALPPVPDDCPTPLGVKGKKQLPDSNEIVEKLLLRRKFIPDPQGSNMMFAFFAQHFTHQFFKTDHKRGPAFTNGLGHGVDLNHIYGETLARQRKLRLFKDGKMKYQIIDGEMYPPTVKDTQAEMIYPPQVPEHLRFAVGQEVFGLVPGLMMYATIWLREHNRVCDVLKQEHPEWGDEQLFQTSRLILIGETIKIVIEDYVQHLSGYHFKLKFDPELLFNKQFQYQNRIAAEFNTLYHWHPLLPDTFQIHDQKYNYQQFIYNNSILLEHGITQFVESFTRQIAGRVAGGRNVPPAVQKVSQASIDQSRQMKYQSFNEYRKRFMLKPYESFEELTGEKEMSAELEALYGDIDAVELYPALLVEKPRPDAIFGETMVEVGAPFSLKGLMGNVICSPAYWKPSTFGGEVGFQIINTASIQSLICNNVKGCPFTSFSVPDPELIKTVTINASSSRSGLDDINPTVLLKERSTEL

COX-2 [2] = target: T1, COX-2; test: Modified assay for COX-2 activity (PGE2 formed, ELISA); type: biochemical, human or murine; settings: human COX-2, replicate tests on separate lines, read-out: hCox-2 Modified IC50

Row | IC50 (COX-2 [1]; replicate tests on separate lines) | IC50 (COX-2 [2]) | IC50 (COX-2 [1]) | SMILES
1 | 35.8 nM and ≤ 137 nM | 29.3 nM and ≤ 137 nM | – | O=C(O)C1=Cc2cc(Cl)c(Oc3ccc4c(c3)OCO4)cc2O[C@H]1C(F)(F)F (single isomer, unassigned) [Example 958a]
2 | – | – | > 500000 nM | CCCOc1c(Cl)cc(Cl)c2c1OC(C(F)(F)F)C(C(=O)O)=C2 (stereo not shown) [Example 23f, 5,7-dichloro-8-propoxy-2-(trifluoromethyl)-2H-chromene-3-carboxylic acid]
3 | – | – | > 33300 nM | Nc1c(Cl)cc(Oc2cccc3c2OC(C(F)(F)F)C(C(=O)O)=C3)c(F)c1Cl (stereo not shown) [Example 25d, 8-(4-amino-3,5-dichloro-2-fuorophenoxy)-2-(trifluoromethyl)-2H-chromene-3-carboxylic acid]
